# According to US11214772B2, “Production method for retinal tissue” (SUMITOMO DAINIPPON PHARMA CO., LTD., priority 2014, dated 2022):
# Tested on: human iPS cells (201B7 strain)
# Assay: Bright field observation of cell aggregates in suspension culture (neuroepithelium formation)
# Format: cell-based
# Conditions: day 18
# Protocol: The thus-prepared subconfluent human iPS cells were treated with the cell dispersion solution by using TrypLE Select (manufactured by Life Technologies), further dispersed into single cells by pipetting operation, and the above human iPS cells dispersed into single cells were suspended in 100 μl of a serum-free medium at 1.2×10^4 cells per well of a non-cell-adhesive 96-well culture plate (PrimeSurface 96V-bottom plate, SUMITOMO BAKELITE). Thereafter, the cells were subjected to suspension culturing at 37° C., 5% CO2. As the serum-free medium (gfCDM+KSR) therefor, a serum-free medium which is a 1:1 mixture of F-12 medium and IMDM medium supplemented with 10% KSR, 450 μM 1-monothioglycerol, 1× Chemically defined lipid concentrate was used. At the time of the start of suspension culturing (day 0 after the start of suspension culturing, start of step 2), a serum-free medium supplemented with SAG (final concentration […]) as a Shh signal transduction pathway activating substance and Y27632 (20 μM) was used (FIG. 5A-D). By day 2 after the start of suspension culturing, cell aggregates were formed. On day 3 after the start of suspension culturing, a serum-free medium (50 μl) free of Y27632 and SAG was added. […] The thus-prepared cell aggregates were subjected to bright field observation under an inverted microscope (BIOREVO manufactured by KEYENCE) on day 18 after the start of suspension culturing.
# The thus-prepared subconfluent human iPS cells were treated with the cell dispersion solution by using TrypLE Select (manufactured by Life Technologies), further dispersed into single cells by pipetting operation, and the above human iPS cells dispersed into single cells were suspended in 100 μl of a serum-free medium at 1.0×10^4 cells per well of a non-cell-adhesive 96-well culture plate (SUMILON SPHEROID V-bottom plate PrimeSurface 96V-bottom plate, SUMITOMO BAKELITE). Thereafter, the cells were subjected to suspension culturing at 37° C., 5% CO2. As the serum-free medium (gfCDM+KSR) therefor, a serum-free medium which is a 1:1 mixture of F-12 medium and IMDM medium supplemented with 10% KSR, 450 μM 1-monothioglycerol, 1× Chemically defined lipid concentrate was used. At the time of the start of suspension culturing (day 0 after the start of suspension culturing, start of step 2), the above serum-free medium supplemented with Y27632 (final concentration 20 μM) and further supplemented with SAG (final concentration 30 nM), Purmorphamine (manufactured by Wako, final concentration 0.2 μM), or human recombinant Shh (manufactured by R&D, Recombinant N-Terminus, final concentration 50 ng/ml) as a Shh signal transduction pathway activating substance was used (FIG. 8). On day 2 after the start of suspension culturing, a cell aggregates were formed. […]
structure (smiles),measurement,setting,value
CNC1CCC(N(Cc2cccc(-c3ccncc3)c2)C(=O)c2sc3ccccc3c2Cl)CC1 (centres unmarked) [SAG],neuroepithelium formation (bright field),"Example 3, Essential 8, SAG 300 μM day 0, with or without BMP4 1.5 nM day 6",neuroepithelium was formed
same,neuroepithelium formation (bright field),"Example 6, StemFit, SAG 30 nM, Purmorphamine 0.2 μM or human recombinant Shh 50 ng/ml day 0, BMP4 1.5 nM day 3",neuroepithelium was formed
